Test results: patent publication US4567201A, “Diphenoxypropane derivatives and compositions of antiasthmatic and antiinflammatory agents thereof” (Takeda Chemical Industries, Ltd., priority 1981, dated 1986)

Columns and labels:
[1] = system: leukotriene D4 (LTD4)-induced contraction of the guinea pig ileum; assay: Anti-SRS-A activity: inhibition of LTD4-induced contraction of guinea pig ileum; conditions: 50% inhibition of LTD4-induced contraction (60-70% of maximum contraction), drug added 1 minute before LTD4
Description: The present inventors studied the antagonistic action of compound (I)-A against SRS-A using a synthetic LTD4 in the following manner.
The inhibitory effect of the drug on the contractile response (60-70% of maximum contraction) of the ileum of guinea pig (body weight 300-350 g, female and male) to leukotriene D4 (LTD4) was investigated. In Tyrode solution containing atropine (10^-7 M) and mepyramine (10^-6 M), 3×10^-10 or 10^-9 M of LTD4 was repeatedly permitted to act on the guinea pig ileum and after the amplitude of contraction had become constant, a solution of the test drug was added to a final concentration of 10^-9 to 10^-4 M. After 1 minute, the same concentration of LTD4 was further added and the anti-SRS-A activity of the drug was calculated from the change in contraction amplitude by means of the following equation. [formula]
To obtain the IC50 value, the mole concentration of the drug showing a 50% inhibition of the contractile response was determined from plots on a graph.
The drug was used as dissolved in dimethyl sulfoxide. The solvent was used in an amount less than 1% which would not exert any influence on the ileum.

Carrageenin edema = Carrageenin edema in rats; type: in vivo, rat; conditions: for Percent inhibition: carrageenin edema; for Mean volume of edematous swelling ±S.E.: in ml (unit assumed)
Method: The volume of the right hind paw of each rat was measured and the test compound suspended in 4% gum arabic solution was orally administered in an amount of 1 ml/100 g body weight. Immediately thereafter, a further amount of water was given to make the total dosing volume 5 ml. After 1 hour, 0.05 ml of a 1% suspension of carageenin in physiological saline was subcutaneously injected into the foot pad. Three hours after the carrageenin injection, the volume of the paw was measured again and the volume of the edema was calculated as a difference between this measured volume of the paw and the volume before the injection.
In the case of intravenous administration, a solution of the test compound in an aqueous solution of NaHCO3 was intravenously administered in an amount of 2.0 ml/100 g body weight and 5 ml of water per animal was orally administered. Then, carrageenin was injected subcutaneously to produce edema.

[2] = system: bronchoconstriction due to leukotriene D4 (LTD4); assay: Inhibition of bronchoconstriction due to intravenous LTD4 in guinea pigs (Konzett-Rossler); type: in vivo, guinea pig (Hartley strain); conditions: for Percent increase of overflow: 2 minutes before LTD4 10 μg/kg i.v., Mean±S.E.; for Percent inhibition: 2 minutes before LTD4 (Table 2)
Method: Guinea pigs of Hartley strain, both male and female, with body weights about 400 g were assigned to groups of 6 individuals, and the bronchoconstriction due to LTD4 were measured according to the method of Konzett-Rossler, [Konzett, H. and Rossler, R.: Naunyn-Schmiedebergs Archiv Fur Experimentelle Pathologie und Pharmakologie 195, 71-74 (1940)]. Each guinea pig was fixed in supine position under urethane anesthesia (1.5 g/kg, intraperitoneal) and the trachea was incised and connected to an artificial respiration apparatus, Rodent Respirator Model 680 [Harvard Apparatus Company, U.S.A.] via a cannula. The branch tube of this tracheal cannula was connected to Bronchospasm Transducer Model 7020 [Ugobasil Biological Research Apparatus, Italy]. Under the conditions of 5 to 7 ml of air per stroke, 70 strokes per minute and a lung loading pressure of 10 cmH2 O, the volume of overflowing air was recorded on Rectigraph-8S (Sanei Sokki Ltd., Japan) via a transducer. After administration of gallamine triethiodide (1 mg/kg, i.v.), 10 μ g/kg of histamine.2HCl was intravenously administered to investigate the response of the animal. Then, a solution of LTD4 in physiological saline (10 μg/kg) was intravenously administered and the bronchoconstriction elicited thereby was recorded for 15 minutes. Two minutes before LTD4 loading, compound (I)-A-1 was intravenously administered in a volume of 0.1 ml per 100 g body weight. Compound (I)-A-1 and LTD4 were administered through a cannula inserted into the jugular vein.
The compound (I)-A-1 was used as dissolved in physiological saline containing sodium hydrogen carbonate, and LTD4 was taken from a stock stored in methanol (1 mg/1 ml methanol) at -70° C.
The bronchoconstriction induced by intravenous administration of 10 μg/kg of LTD4 as given 2 minutes after the administration of physiological saline was maximal at the time of 30 seconds after the administration of LTD4 and, since then, was rapidly attenuated to about 50% at the time of 2 minutes but lasted till 15 minutes. Assuming that the response at complete obstruction is 100%, the values at 30 seconds and 15 minutes were 47.4±6.9% (n=6, Mean±S.E.) and 19.4±2.8% (Mean±S.E.), respectively (S.E.: standard error).
Then the present inventors studied the antagonistic action of the compound (I)-B against SRS-A using a synthetic LTD4 in the manner described on the compound (I)-A.
In each case, the bronchoconstriction following intravenous administration of 10 μg/kg of LTD4 at 2 or 30 minutes after the administration of physiological saline reached a maximum 30 seconds after the administration of LTD4, and then decreased to about 50% at 2 minutes after the administration of LTD4. The response continued for 15 minutes after the administration of LTD4. Repeated experiments using 6 animals per group gave mean degrees of maximum bronchoconstriction (30-second values) of 52.2-67.1% and 54.7-70.1%, respectively, as compared with the state of complete obstruction (100%). In experiment 1, the test compounds (I)-B-1, (I)-B-2 and Control compound-1 were each intravenously administered at two minutes before the administration of LTD4 and inhibitory effect on the bronchoconstriction was examined. The minimum effective doses (causing statistically significant differences as compared with the control group; significance level <5%) were 0.313, 0.313 and 5 mg/kg, respectively. The corresponding inhibition percentages were 41, 52 and 56%, respectively. In experiment 2, the test compounds were intravenously administered 30 minutes before the administration of LTD4 and the effect on the above response was examined. The minimum effective doses were 5, 5, and 20 mg/kg, respectively.
The test compounds were intravenously administered 2 minutes before the
intravenous administration of 10 μg/kg of LTD4.
The test compounds were intravenously administered 30 minutes before the
Each value was calculated from the volume (in percentage) of air […]

Acute toxicity in mice = type: in vivo, mouse (Jcl:ICR strain); conditions: 500 mg/kg oral
Method: Five 5-week-old male mice of Jcl:ICR strain, weighing 26.0 to 30.5 g, were used. Compound (I)-A-1 was suspended in a 5% solution of gum arabic and administered orally by gastric gavage at the level of 0.2 ml per 10 grams body weight.
Five 5-week-old male mice of Jcl:ICR strain, weighing 26.0 to 30.5 g, were used. Compound (I)-B-1 or (I)-B-2 was suspended in a 5% solution of gum arabic and administered orally by gastric gavage at the level of 0.2 ml per 10 grams body weight.

CCCc1c(OCC(O)COc2ccc(-c3nn[nH]n3)cc2Cl)ccc(C(C)=O)c1O (centres unmarked) [Compound (I)-A-1, 4-[3-[4-(tetrazol-5-yl)-2-chlorophenoxy]-2-hydroxypropoxy]-2-hydroxy-3-propylacetophenone]
IC50 [1]: 4.1 nM | Percent inhibition (Carrageenin edema; 1 mg/kg i.v.): 19.2% | Mean volume of edematous swelling ±S.E. (Carrageenin edema; 1 mg/kg i.v.): 0.442 ± 0.044 | Percent inhibition (Carrageenin edema; 10 mg/kg i.v.): 25.0% | Mean volume of edematous swelling ±S.E. (Carrageenin edema; 10 mg/kg i.v., *p<0.05): 0.410 ± 0.046 | Mean volume of edematous swelling ±S.E. (Carrageenin edema; 50 mg/kg p.o., 3 hours after carrageenin, *p<0.05): 0.487 ± 0.023 | Percent inhibition (Carrageenin edema; 50 mg/kg p.o.): 15.0% | antiinflammatory activity (in words) (Carrageenin edema; rat, in vivo): has an antiinflammatory activity | Percent increase of overflow ([2]; 0.08 mg/kg i.v., 8 animals): 29.1 ± 7.5% | Percent inhibition ([2]; 0.08 mg/kg i.v.): 39% | Percent increase of overflow ([2]; 0.313 mg/kg i.v., 6 animals): 28.1 ± 7.1% | Percent inhibition ([2]; 0.313 mg/kg i.v.): 41% | Percent increase of overflow ([2]; 1.25 mg/kg i.v., 6 animals, *p<0.05 vs physiological saline control): 23.4 ± 8.0% | Percent inhibition ([2]; 1.25 mg/kg i.v.): 51% | inhibition of LTD4 bronchoconstriction (in words) ([2]; 5 mg/kg i.v., 2 minutes before LTD4): substantially complete inhibition | Percent increase of overflow ([2]; 5 mg/kg i.v., 6 animals, ***p<0.001 vs physiological saline control): 3.3 ± 2.1% | Percent inhibition ([2]; 5 mg/kg i.v.): 93% | inhibitory effect against LTD4 bronchoconstriction (in words) ([2]; intravenously administered 2 minutes before LTD4 dosing): remarkable inhibitory effect | Autopsy findings (Acute toxicity in mice; after 1 week): did not reveal any abnormalities | symptoms attributable to compound after oral administration (Acute toxicity in mice; male mice): no symptoms
